Test results published in US20090062355A1, “Pharmaceutical Product” (Takeda Pharmaceutical Company Limited, priority 2006, published 2009).
Like-named read-outs stand apart in the source and are kept apart here.

Legend:
Format in all cases: cell-based
[1] = tested on: Peripheral Blood Mononuclear Cells; assay: Influence on binding of LPS to PBMC (flow cytometry); details: 10 μM; 4° C. 30 min, then labeled LPS 50 ng/mL, 1% human serum, 37° C. 45 min; FIG. 2
Excerpt: FIG. 2 is a graph showing the effects of test compound 1, anti-CD14 antibody and anti-CCR5 antibody on the binding of LPS to PBMC. With an average of triplicate measurement values of LPS alone as 100%, % averages of triplicate measurement values of other groups are shown, mean±standard error (Experimental Example 6, results of 4 independent tests using PBMC obtained from the blood of different 4 subjects).
Peripheral Blood Mononuclear Cells were Separated by a conventional method, and reacted with test compound 1 (compound 72 of Reference Example B66), anti-human CD14 monoclonal antibody MEM-18 and anti-human CCR5 monoclonal antibody 2D7 (negative control) at 4° C. for 30 min. The cells were reacted with fluorescence label LPS (E. coli O55:B5, Alexa Fluor® 488-labeled, 50 ng/mL) in the presence of 1% human serum at 37° C. for 45 min. The cells (10,000 cells) were washed and the binding of fluorescence label LPS was examined by flow cytometry.

[2] = tested on: mouse macrophage cell line RAW264.7 cells; assay: Suppressive action on production of cytokine from LPS stimulated macrophage (BioPlex cytokine assay); details: 100 nM + LPS 10 ng/mL, overnight
Protocol: A suppressive effect of test compound 1 (compound 72 of Reference Example B66) on the production of various cytokines by lipopolysaccharide (LPS), which is a TLR4 agonist, using mouse macrophage cell line RAW264.7 cells was examined. The day before the experiment, the cells were suspended to 1×10^6 cells/mL in RPMI1640 medium supplemented with 10% inactivated fetal bovine serum, plated on a 96 well microplate at 0.1 mL/well and incubated at 37° C., 5% CO2/95% air overnight. The medium was changed, and test compound 1 (final concentration 100 nM) and LPS (final concentration 10 ng/mL) were added. After overnight culture, the content of cytokine in the culture supernatant was quantified by BioPlex cytokine assay (Bio-Rad). Test compound 1 was dissolved in dimethyl sulfoxide (DMSO) to 10 mM, diluted with RPMI1640 medium supplemented with 1% inactivated fetal bovine serum to 0.1 mM, further diluted with the medium to 10-fold concentration of the final concentration and 1/10 thereof was added.

[3] = tested on: mouse macrophage cell line RAW264.7 cells; assay: Suppressive action on production of mediator from LPS stimulated macrophage; details: LPS 10 ng/ml, overnight culture
Protocol: A suppressive effect of test compound 1 (compound 72 of Reference Example B66) on the production of various mediators by lipopolysaccharide (LPS), which is a TLR4 agonist, using mouse macrophage cell line RAW264.7 cells was examined. The day before the experiment, the cells were suspended to 5×10^5 cells/mL in RPMI1640 medium supplemented with 10% inactivated fetal bovine serum, plated on a 96 well microplate at 0.2 mL/well and incubated at 37° C., 5% CO2/95% air overnight. The medium was changed to RPMI1640 medium supplemented with 1% inactivated fetal bovine serum, and test compound 1 and LPS (final concentration 10 ng/ml) was added. After overnight culture, cytokine, chemokine, prostaglandin E2 in the culture supernatant was quantified by ELISA, and nitrite ion (stable metabolite of NO) concentration was quantified by a fluorescence method using 2,3-diaminonaphthalene. Test compound 1 was dissolved in N,N-dimethylformamide to 10 mM, diluted with RPMI1640 medium supplemented with 1% inactivated fetal bovine serum to 0.1 mM, further diluted with the medium to 10-fold concentration of the final concentration and 1/10 thereof was added. Test compound 1 suppressed almost all the examined mediator production at an equivalent IC50.

For `CCOC(=O)C1=CCCC[C@H]1S(=O)(=O)Nc1ccc(F)cc1Cl` [test compound 1, ethyl (6R)-6-[(2-chloro-4-fluoroanilino)sulfonyl]-1-cyclohexene-1-carboxylate], the “binding of fluorescence label LPS to PBMC” value [1] was “completely failed to inhibit”, the “expression amount of cytokines: IL1beta” value ([2]; control 0, LPS 97) was 2 pg/mL and the “expression amount of cytokines: IL12(p40)” value ([2]; control 3, LPS 18) was 4 pg/mL. For the same molecule, the “expression amount of cytokines: IL2” value ([2]; control 3, LPS 20) was 8 pg/mL, the “expression amount of cytokines: IL3” value ([2]; control 3, LPS 22) was 3 pg/mL and the “expression amount of cytokines: IFNgamma” value ([2]; control 9, LPS 31) was 8 pg/mL. For the same molecule, the “expression amount of cytokines: IL17” value ([2]; control 9, LPS 50) was 13 pg/mL, the “expression amount of cytokines: KC” value ([2]; control 10, LPS 79) was 22 pg/mL and the “expression amount of cytokines: IL12(p70)” value ([2]; control 12, LPS 48) was 13 pg/mL. The “expression amount of cytokines: IL1alpha” value ([2]; control 21, LPS 74) was 47 pg/mL, the “expression amount of cytokines: IL10” value ([2]; control 25, LPS 80) was 20 pg/mL and the “expression amount of cytokines: RANTES” value ([2]; control 31, LPS 1520) was 48 pg/mL. The “expression amount of cytokines: TNFalpha” value ([2]; control 48, LPS 10483) was 125 pg/mL, the “expression amount of cytokines: GM-CSF” value ([2]; control 53, LPS 135) was 85 pg/mL and the “expression amount of cytokines: IL6” value ([2]; control 82, LPS 233) was 152 pg/mL. For the same molecule, the IC50 ([3]; ELISA, read-out: IC50, IL-1α production) was 1.1 nM, the IC50 ([3]; ELISA, read-out: IC50, IL-6 production) was 2 nM and the IC50 ([3]; ELISA, read-out: IC50, IL-10 production) was 1.6 nM. It also gave an IC50 ([3]; ELISA, read-out: IC50, MIP-2 production) of 7.1 nM, an IC50 ([3]; ELISA, read-out: IC50, PGE2 production) of 4 nM and an IC50 ([3]; ELISA, read-out: IC50, TNF-α production) of 3.1 nM. It also gave an IC50 ([3]; fluorescence method with 2,3-diaminonaphthalene, read-out: IC50, NO production (nitrite ion)) of 1.8 nM.
